≈ marks a conversion by molar mass, not a printed value. Where “and” joins values, the source holds several entries; their conditions need not be identical. Equal values may be shown once. Entries after “also recorded” stand apart in the source; their conditions may differ. Read-outs that look alike come from different tables or passages of the source. Each block holds one compound with its values, some of them ahead of it.
Key:
[1] = test system: platelet aggregation triggered by AA; test: Arachidonic acid (AA)-induced platelet aggregation, whole blood aggregometry; format: cell-based, human; details: for IC50: Platelet
Experimental: (§1) Blood from 20 non-smoking, young (aged from 22 to 45 years, median 27), healthy volunteers was collected by venipuncture into plastic tubes containing heparin sodium (170 IU/10 mL; Zentiva, Prague, Czech Republic). No medication had been taken by volunteers 14 days prior blood collection and no alcohol had been consumed 12 h before the blood draw.
A total of 300 µL of whole blood was diluted with the same volume of 0.9 % sodium chloride (B.Braun, Melsungen, Germany) preheated to 37 °C and incubated with 5 µL of a tested compound dissolved in DMSO (Penta, Prague, Czech Republic) at a final concentration of 0.8% for 3 min at 37 °C. Platelet aggregation was then induced by addition of collagen (Diagnostica a.s., Czech Republic), arachidonic acid (AA) or Thrombin Receptor Activating Peptide (TRAP) (Roche Holding AG, Basel, Switzerland) and monitored for 6 min. The dose of inducer was initially set to the minimal concentration which caused maximal aggregation. The second calibration was carried out by use of standards, 4-methylcatechol in the case of AA- and collagen-triggered aggregation (Sigma-Aldrich) or vorapaxar for thrombin aggregation (Selleck Chemicals GmbH, Munich, Germany). […] For comparison, also the clinically used standard ASA was employed.

[2] = test system: Nrf2; details: cited from earlier work; for Activation of Nrf2: many cell lines, effect observed even at 5 μM
[3] = test system: platelet aggregation induced by collagen; test: Collagen-induced platelet aggregation, whole blood aggregometry; format: cell-based, human; details: for IC25: Platelet, human whole blood, read-out: IC25 (Mean ± SD, μM) on Collagen-Induced Platelet Aggregation; for Effect on collagen-induced aggregation compared with ASA: comparison of 95% confidence intervals of fitted curves / IC25
Experimental: as §1, with “draw. The protocol was approved by the Ethics Committee of the Faculty of Pharmacy, Charles University on May 31, 2019.” for “draw.”
A total of 300 µL of whole blood was diluted with the same volume of 0.9 % sodium chloride (B.Braun, Melsungen, Germany) preheated to 37 °C and incubated with 5 µL of a tested compound dissolved in DMSO (Penta, Prague, Czech Republic) at a final concentration of 0.8% for 3 min at 37 °C. Platelet aggregation was then induced by addition of collagen (Diagnostica a.s., Czech Republic), arachidonic acid (AA) or Thrombin Receptor Activating Peptide (TRAP) (Roche Holding AG, Basel, Switzerland) and monitored for 6 min. The dose of inducer was initially set to the minimal concentration which caused maximal aggregation. The second calibration was carried out by use of standards, 4-methylcatechol in the case of AA- and collagen-triggered aggregation (Sigma-Aldrich) or vorapaxar for thrombin aggregation (Selleck Chemicals GmbH, Munich, Germany). The final concentrations of inducers were in the range of 0.16–2.42 µg/mL for collagen, 25–196 µM for AA and 0.8–9.8 µM for TRAP. For comparison, also the clinically used standard ASA was employed.

[4] = test system: hepatic HepG2; parameters: method as in PMID 35547925, PMID 30614688, doi:10.1016/j.jff.2019.01.047; details: cited from earlier work
[5] = test system: human monocytic cell line THP-1; parameters: method as in PMID 35547925, PMID 30614688, doi:10.1016/j.jff.2019.01.047; details: cited from earlier work
[6] = test system: anti-inflammatory activity; parameters: method as in PMID 30614688, doi:10.1016/j.jff.2019.01.047; details: 10 μM; cited from earlier work
[7] = test system: MCF-7/S0.5 human breast cancer cell line; test: CellTiter 96 AQueous One Solution Cell Proliferation Assay; format: cell-based; details: 48 h
Experimental: MCF-7/S0.5 human breast cancer cell line adapted to low-sera conditions (ECACC, Porton Down, Salisbury, UK) was used. Cells were maintained at 37 °C and 5% CO2 and were passaged once a week. Dulbecco’s Modified Eagle Medium/Nutrient Mixture F-12 (DMEM/F-12; Thermo Fisher, Waltham, MA, USA) supplemented with FBS Charcoal Stripped, antibiotics (penicillin/streptomycin) and insulin, according to cell provider instructions, was used as the growth medium. Cells were used in passages between 7 and 12.
Cell viability assay was performed using CellTiter 96® AQueous One Solution Cell Proliferation Assay (Promega, Madison, WI, USA). MCF-7 cells were seeded at a density of 80 × 10^3 cells per well in a 96-well plate. Cells were exposed to the compounds and incubated at 37 °C with CO2 5% for 48 h prior tetrazolium reagent [3-(4,5-dimethylthiazol-2-yl)-5-(3-carboxymethoxyphenyl)-2-(4-sulfophenyl)-2H-tetrazolium] addition (20 µL/well). DMSO at a final concentration of 0.1% (as it is not associated with toxicity) was used as a negative control (set to 100% viability), and sodium dodecyl sulfate (SDS 10%) as positive control. After incubation period CellTiter reagent was added to the cells and further incubated for 3 h. After this time, absorbance was recorded at a wavelength of 490 nm by use of a microplate reader (Hidex Oy, Turku, Finland). All samples were performed in triplicates and repeated at least three times.

[8] = test system: bacterial colonies; parameters: method as in PMID 11351422; details: cited from earlier work
[9] = test system: plasmids; details: 50 μM, without redox-active metals; cited from earlier work
[10] = test system: encephalomyocarditis virus; parameters: method as in PMID 35558500; details: cited from earlier work; for Antiviral potency relative to catechol: lowest tested concentration 0.4 mg/mL (approximately 3 mM)
[11] = test system: rats; parameters: method as in PMID 10956160, PMID 12065208; details: cited from earlier work
[12] = parameters: method as in PMID 10956160, PMID 12065208; details: chronic high dose studies; cited from earlier work
[13] = test system: mice; parameters: method as in PMID 10956160, PMID 12065208; details: cited from earlier work
[14] = test system: three different cell lines; parameters: method as in PMID 26885667; details: 30 μM; cited from earlier work
[15] = test system: thrombin pathway; details: cited from earlier work
[16] = test system: platelet aggregation; details: cited from earlier work
[17] = parameters: method as in PMID 25571923; details: humans, on average; cited from earlier work
[18] = Homo sapiens, read-out: IC50 class, colour key of Figure 3
[19] = human whole blood, class assigned by colour of the drawn structure, read-out: IC50 class, colour key of Figure 3
[20] = human whole blood, read-out: IC50 (Mean ± SD, μM) on Arachidonic Acid-induced Platelet Aggregation

IC50 [1, 19]: > 100 µM | IC50 [1, 20]: ~32 µM
Compound: COc1ccc(C)c(OC)c1 [2,4-dimethoxytoluene]

IC50 [1, 19]: < 3 µM | IC50 [1, 20]: 1.37 ± 0.28 µM
Compound: CCc1ccc(O)c(OC)c1 [2-methoxy-4-ethylphenol]
Activation of the Nrf2 pathway after its suppression by lipopolysaccharide ([2]; 10 μM): activated the Nrf2 pathway | Activation of the Nrf2 pathway ([2]; only concentrations higher than 650 μM were tested): activated the Nrf2 pathway | IC25 [3]: 5.07 ± 4.05 µM | Concentration from which mildly toxic [4]: about 660 μM and ~100 mg/L | Concentration below which toxicity was not observed [5]: ≥ 5 mM | Anti-inflammatory activity [6]: anti-inflammatory activity was observed

IC50 [1, 19]: < 3 µM | IC50 [1, 20]: 2.57 ± 2.24 µM
Compound: COc1cc(C)ccc1O [2-methoxy-4-methylphenol]
IC25 [3]: 11.5 ± 9.05 µM | Effect on collagen-induced aggregation compared with ASA [3]: significantly more efficient than ASA

IC50 [1, 20]: 3.82 ± 0.5 µM
Compound: Nc1cccc(O)c1O [3-aminocatechol]

IC50 [1, 19]: < 3 µM | IC50 [1, 20]: 1.74 ± 0.17 µM
Compound: Oc1cccc(F)c1O [3-fluorocatechol]

IC50 [1, 19]: < 3 µM | IC50 [1, 20]: 2.28 ± 0.3 µM
Compound: CC(C)c1cccc(O)c1O [3-isopropylcatechol]
Cell proliferation / viability, MCF-7/S0.5 ([7]; 10 μM): not toxic | Cell proliferation / viability, MCF-7/S0.5 ([7]; 100 μM): decreased cell proliferation | IC25 [3]: 12.9 ± 21.3 µM

IC50 [1, 19]: < 3 µM | IC50 [1, 20]: 1.61 ± 0.17 µM
Compound: Cc1cccc(O)c1O [3-methylcatechol]
IC25 [3]: 7.15 ± 6.41 µM

IC50 [1, 19]: > 100 µM | IC50 [1, 20]: ~61 µM
Compound: C=CCc1ccc(OC)c(OC)c1 [4-allyl-1,2-dimethylcatechol, 4-allyl-1,2-dimethoxybenzene]
Tumors [11]: elicited liver but also other tumors | Rat plasma levels [12]: 4–46 μM and 0.66–8.25 μg/mL | Activity towards AA-induced aggregation (in words) ([1]; human whole blood): inactive; also recorded: inactive or only weakly active | Tumors [13]: elicited liver but also other tumors

IC50 [1, 19]: > 10 µM | IC50 [1, 20]: ~21 µM
Compound: Nc1ccc(O)c(O)c1 [4-aminocatechol]

IC50 [1, 19]: < 3 µM | IC50 [1, 20]: 1.29 ± 0.14 µM
Compound: CCc1ccc(O)c(O)c1 [4-ethylcatechol]
Activation of Nrf2 [2]: clearly confirmed | Antiviral potency relative to catechol [10]: more potent | IC25 [3]: 4.61 ± 1.16 µM | Effect on collagen-induced aggregation compared with ASA [3]: significantly more efficient than ASA | Toxicity to cell lines [14]: not toxic

IC50 [1, 19]: < 3 µM | IC50 [1, 20]: 1.82 ± 0.21 µM
Compound: Oc1ccc(F)cc1O [4-fluorocatechol]
IC25 [3]: 4.72 ± 0.28 µM | Effect on collagen-induced aggregation compared with ASA [3]: significantly more efficient than ASA

IC50 [1, 19]: < 3 µM | IC50 [1, 20]: 2.59 ± 0.17 µM
Compound: Cc1ccc(O)c(O)c1 [4-methylcatechol, reference compound]
IC25 [3]: 2.66 ± 2.21 µM | Toxicity to cell lines [14]: not toxic | Effect on thrombin pathway [15]: no effect | Antiplatelet potency relative to acetylsalicylic acid (ASA) [16]: approximately ten times higher potency

IC50 [1, 19]: > 10 µM | IC50 [1, 20]: 13.3 ± 1.57 µM
Compound: O=[N+]([O-])c1ccc(O)c(O)c1 [4-nitrocatechol]
Cell proliferation / viability, MCF-7/S0.5 ([7]; 10 μM): not toxic | Cell proliferation / viability, MCF-7/S0.5 ([7]; 100 μM): decreased cell proliferation

IC50 [1, 20]: 7.24 ± 3.75 µM
Compound: CC(C)(C)c1ccc(O)c(O)c1 [4-tert-butylcatechol]

Continued, compound first:

Compound: COc1ccccc1OC [1,2-dimethylcatechol, 1,2-dimethoxybenzene]
IC50 ([1]; Homo sapiens, read-out: IC50 (Mean ± SD, μM) on Arachidonic Acid-induced Platelet Aggregation): ~78 µM | IC50 [1, 18]: > 100 µM | Activity towards AA-induced aggregation (in words) ([1]; human whole blood): inactive

Compound: Nc1ccccc1O [2-aminophenol]
IC50 [1, 20]: 6.65 ± 1.06 µM

Compound: Oc1cc(Cl)cc(Cl)c1O [3,5-dichlorocatechol]
Cell proliferation / viability, MCF-7/S0.5 ([7]; 10 μM): not toxic | Cell proliferation / viability, MCF-7/S0.5 ([7]; 100 μM): decreased cell proliferation | IC50 [1, 18]: > 10 µM | IC50 [1, 20]: 13.5 ± 1.57 µM | Formation of bacterial colonies ([8]; 10 μM): blocked the formation of bacterial colonies | Antibacterial activity [8]: Antibacterial activity was observed | DNA damage [9]: no DNA damage was observed

Compound: COc1cccc(O)c1O [3-methoxycatechol]
Antiviral potency relative to catechol [10]: more potent | IC50 [1, 20]: 7.92 ± 0.74 µM

Compound: Oc1cc(Cl)c(Cl)cc1O [4,5-dichlorocatechol]
Cell proliferation / viability, MCF-7/S0.5 ([7]; 10 μM): not toxic | Cell proliferation / viability, MCF-7/S0.5 ([7]; 100 μM): decreased cell proliferation | Cell proliferation / viability, MCF-7/S0.5 ([7]; 100 μM, listed as 4,5-dichlorcatechol): blocked cell proliferation | IC25 [3]: 9.86 ± 15.1 µM | IC50 [1, 20]: 3.35 ± 0.92 µM

Compound: Oc1ccc(Cl)cc1O [4-chlorocatechol]
IC50 [1, 20]: 3.66 ± 0.29 µM | Antibacterial activity [8]: Antibacterial activity was observed | DNA damage [9]: no DNA damage was observed

Compound: CCc1ccc(O)cc1 [4-ethylphenol]
Activation of Nrf2 [2]: inactive

Compound: C=Cc1ccc(O)c(O)c1 [4-vinylcatechol]
Toxicity to cell lines [14]: not toxic

Compound: CC(=O)Oc1ccccc1C(=O)O [ASA, acetylsalicylic acid, reference compound]
IC25 [3]: 26.9 ± 2.25 µM

Compound: Cc1ccccc1O [o-cresol]
IC50 [1, 18]: > 10 µM | IC50 [1, 20]: 12 ± 5.55 µM | Effect on thrombin pathway [15]: no effect | Inhibition of platelet aggregation [16]: inhibited platelet aggregation

Compound: Cc1ccccc1N [o-toluidine]
IC50 [1, 18]: > 100 µM | Activity towards AA-induced aggregation (in words) ([1]; human whole blood): inactive or only weakly active

Compound: O=S(=O)(O)Oc1ccccc1O [pyrocatechol-sulfate]
Plasma levels [17]: 12 µM

Compound: Oc1ccccc1O [pyrocatechol]
Activation of Nrf2 [2]: clearly confirmed | IC50 antiviral activity [10]: 0.67 mg/mL (≈ 6.08 mM) | IC50 ([10]; read-out: IC50 antiviral activity): 6 mM | IC50 [1, 20]: 4 ± 0.45 µM | Toxicity to cell lines [14]: not toxic | Antibacterial activity [8]: Antibacterial activity was observed
